Assay: xn = mol fraction of the nth substance listed
Details: 101 kPa, Liquid; for viscosity: Capillary tube (Ostwald / Ubbelohde) method; for mass density: Vibrating tube method

CCCCCCn1cc[n+](C)c1.F[B-](F)(F)F [1-hexyl-3-methylimidazolium tetrafluoroborate] + CCCO
Details | mass density, 293.15 K [kg/m3] | mass density, 303.15 K [kg/m3] | mass density, 313.15 K [kg/m3] | mass density, 323.15 K [kg/m3] | mass density, 333.15 K [kg/m3] | viscosity, 293.15 K [mPa·s] | viscosity, 303.15 K [mPa·s] | viscosity, 313.15 K [mPa·s] | viscosity, 323.15 K [mPa·s] | viscosity, 333.15 K [mPa·s]
x1 = 0.1004 | – | – | – | – | – | – | – | 1.999 | – | –
x1 = 0.1006 | 895.6 | 887.71 | 879.74 | 871.67 | 863.47 | 3.744 | 2.705 | – | 1.502 | 1.123
x1 = 0.199 | 955.99 | 948.28 | 940.53 | 932.73 | 924.86 | 6.294 | 4.518 | 3.364 | 2.585 | 1.99
x1 = 0.3002 | 1001.98 | 994.41 | 986.83 | 979.23 | 971.61 | 10.08 | 7.158 | 5.324 | 4.056 | 3.14
x1 = 0.4993 | 1065.02 | 1057.71 | 1050.43 | 1043.18 | 1035.95 | 23.7 | 16.37 | 11.84 | 8.808 | 6.76
x1 = 0.6309 | 1094.51 | 1087.38 | 1080.27 | 1073.19 | 1066.15 | 41.96 | 27.85 | 19.44 | 14.25 | 10.74
x1 = 0.7571 | 1116.98 | 1110.01 | 1103.05 | 1096.1 | 1089.2 | 73.7 | 46.65 | 31.26 | 21.97 | 16.09
x1 = 0.8894 | 1135.92 | 1129.14 | 1122.32 | 1115.51 | 1108.71 | 139.42 | 82.45 | 52.28 | 35.15 | 24.67
x1 = 1 | 1149.24 | 1142.48 | 1135.79 | 1129.08 | 1122.37 | 232.65 | 130.02 | 78.24 | 50.3 | 34.02
